Test results: paper PMC8875489, “Pharmaceutical and Safety Profile Evaluation of Novel Selenocompounds with Noteworthy Anticancer Activity” (Pharmaceutics, 2022)
Where two headings read alike, the source gives them in different places.

What was measured:
[1] = Experimental aqueous solubility (UV spectrophotometry of saturated solutions); format: physicochemical; conditions: for solubility at 24 h: water (saturated solution)
Experimental: Experimental aqueous solubility was determined following a previously described procedure. Briefly, calibration curves were obtained by means of UV spectrometry for each compound, and their respective linear equations were obtained. Afterwards, saturated solutions of each compound were obtained, and they were diluted until the concentration fell within the calibration range, thus enabling the correct concentration interpolation. […] A detailed description of this process can be found in Supplementary Materials.
The aqueous solubility of the tested organic Se compounds was experimentally determined following a previously described procedure. The chosen assay used UV spectrophotometry to estimate the concentration of the saturated solution with known dilutions of the tested compound at room temperature (20° C) after 24 h. The concentrations of the solutions were used to obtain the interpolation of the measured UV absorbance of the saturated solution dilution from the calibration curve drawn using solutions previously prepared in methanol/water mixtures. […]
1.2. Determination of the aqueous solubility
1.2.1. Preparation of the saturated solutions of tested compounds
The saturated solutions (2 mL) of the tested Se-compounds in water were prepared at H2O boiling point in small glass vials. Later, vials were covered to avoid evaporation and all solutions were left 1 day at 20° C, after when every solution was filtered. Finally, the concentration of the Se-compounds was determined through UV spectrophotometric measurements. To estimate correctly the concentration, calibration curves with known concentrations were prepared, and the saturated solutions were diluted till reaching a point within the range of the respective calibration curve.
1.2.2. Preparation of the calibration curve stock solutions for UV spectrometry The stock solutions of 10 selenoesters (EDA-26, EDA-71, EDA-73, EDA-74, EDA-93, […]
were prepared in methanol (99% purity) at a 1 g/L concentration. Additionally, calibration solutions in the range from 0.0005 to 0.02 [g/L] were prepared for each Se-compound and their UV absorbance was determined to draw the corresponding calibration curve.
1.2.3. Sample preparation of saturated filtrates for UV spectrometry
The 100-fold diluted solutions of the saturated filtrates of the Se-compounds were prepared in the anhydrous methanol (99% purity), by addition of 70 μL of the correspond-ing methanol stock solution over anhydrous methanol till filling a 7 mL final volume. Af-terwards, the absorption of abovementioned solutions was determined. Finally, the solu-tions were diluted with 99% methanol from 1 to 160 times, in function of the compound.
The aim of this procedure was to determine the concentration of the Se-compounds […]
through the controlled dilution of the solution with unknown concentration till its UV absorbance fell within the range of the calibration solutions.
1.2.4. Solubility estimation
For each compound, the calibration curve was calculated through the UV absorbance measurements and the linear equation of the linear part of the curve was calculated. The absorbance of the dilution was then interpolated in this range, finding its concentration.
To determine the solubility, this concentration was multiplied by the dilution factor, which was specific for each derivative. This action enabled the estimation of the in vitro solubility of the tested derivatives in saturated solutions. All the solubility values were the average value obtained from the 3 independent measurements.
1.3. PAMPA test: membrane permeability evaluation.
The passive transport and the membrane absorption of 5 selected selenocompounds (EDA-58, EDA-71, EDA-119, EDA-122, EDA-A6) were evaluated in the in vitro Parallel Artificial Membrane Permeability Assay (PAMPA). The protocol of the permeability assay was similar to the ones previously described.
1.3.1. Stock solutions and sample preparation for PAMPA test […]

[2] = Chemical stability in acidic and alkaline environments (TLC-monitored); format: physicochemical; conditions: TLC at 10 min, 1, 2, 3, 24, 48 h; for chemical stability in the acidic environment: 2 mg/mL in methanol + 10% HCl 1:1; for chemical stability in the alkaline environment: 2 mg/mL in methanol + 10% NaOH 1:1
Experimental: The chemical stability of the new organic selenocompounds was evaluated in two different environments (acidic and alkaline). Firstly, tested selenocompounds were dissolved in pure anhydrous methanol to obtain a stock solution with a concentration of 2 mg/mL. Then, the solution was divided into two equal parts. A 10% solution of HCl was added in 1:1 proportion to the first part, and a 10% solution of NaOH was added to the second part in the same 1:1 proportion. Then, the stability of the tested Se compounds, either in the acidic or in the basic conditions, was TLC-monitored at specific time periods: 10 min and 1, 2, 3, 24, and 48 h. The following eluents were used: (i) methylene chloride for EDA-26, EDA-73, EDA-74, EDA-93, EDA-109, EDA-119, EDA-120, and EDA-122; a mixture of n-hexane and ethyl acetate in a 4:1 ratio for EDA-58; (ii) chloroform for EDA-71 and EDA-A6; and (iii) acetone for EDA-117.
In the next step of the experiments, the chemical stability of 11 selenoesters (EDA-26, EDA-71, EDA-73, EDA-74, EDA-58, EDA-93, EDA-109, EDA-117, EDA-119, EDA-120 and EDA-122) and the selenoanhydride EDA-A6 in acidic and alkaline environments was evaluated by the use of a previously described method. Unfortunately, it was not possible to estimate the chemical stability of the compounds EDA-46, EDA-53, EDA-56, and […] due to their physicochemical properties: they were liquid at room temperature in the form of an oil, which is not miscible with water.

[3] = 20 °C, water, thermodynamic from solid, logSm calculated based on solubility Sm (mol/L), read-out: Experimental Aqueous Solubility logSm (converted)
[4] = thermodynamic from solid, water, room temperature (20° C), after 24 h, average of 3, read-out: Experimental Aqueous Solubility

Structure (SMILES) | solubility at 24 h [1, 3] [µM] | solubility at 24 h [1, 4] [µg/mL] | chemical stability in the acidic environment [2] | chemical stability in the alkaline environment [2] | fold less soluble than the most soluble Se compound (EDA-117) ([1]; experimental solubility) | solubility at 24 h ([1]; logSm calculated based on solubility Sm (mol/L), read-out: Experimental Aqueous Solubility logSm (converted)) [µM]
C[Se]C(=O)c1ccc(C(=O)[Se]C)s1 [EDA-122, Se,Se-dimethyl thiophene-2,5-bis(carboselenoate)] | 95.5 | 31 |  |  |  | 
C[Se]C(=O)c1ccc(C(=O)[Se]C)cc1 [EDA-109, Se,Se-dimethyl benzene-1,4-bis(carboselenoate)] | 87.1 | 28 | stable till the end of the analysis (48 h) | totally unstable |  | 
C[Se]C(=O)c1cccc(C(=O)[Se]C)c1 [EDA-120, Se,Se-dimethyl benzene-1,3-bis(carboselenoate)] | 81.3 | 26 | stable till the end of the analysis (48 h) | totally unstable |  | 
CC(=O)C[Se]C(=O)c1ccc(Cl)cc1 [EDA-71, Se-(2-oxopropyl) 4-chlorobenzoselenoate] | 479 | 132 | totally unstable | unstable |  | 
CC(C)(C)C(=O)C[Se]C(=O)c1ccc(Cl)cc1 [EDA-73, Se-(3,3-dimethyl-2-oxobutyl) 4-chlorobenzoselenoate] | ~3.16 | ~1 | stable till the end of the experiment (48 h) | unstable | more than 1000 fold | 3.16
O=C(C[Se]C(=O)c1ccccc1)Oc1ccccc1 [EDA-93, phenyl 2-(benzoylselanyl)acetate] | 69.2 | 22 | unstable | unstable |  | 
C[Se]C(=O)c1cccc(C(=O)[Se]C)n1 [EDA-119, Se,Se-dimethyl pyridine-2,6-bis(carboselenoate)] | 427 | 137 |  |  |  | 
O=C1[Se]C(=O)c2ccccc21 [EDA-A6, benzo[c]selenophene-1,3-dione] | 3630 | 758 |  | unstable |  | 
COC(=O)C[Se]C(=O)c1cc(OC)c(OC)c(OC)c1 [EDA-26, methyl 2-((3,4,5-trimethoxybenzoyl)selanyl)acetate] | 1100 | 380 | stable till the end of the analysis (48 h) | totally unstable |  | 
COc1cc(OC)cc(C(=O)[Se]CC(=O)C(C)(C)C)c1 [EDA-74, Se-(3,3-dimethyl-2-oxobutyl) 3,5-dimethoxybenzoselenoate] | 55 | 19 | stable till the end of the experiment (48 h) | unstable |  | 
